US6914045B2, “Glycopeptide antibiotics” (Wyeth Holdings Corporation, priority 2001, dated 2005)
Converted amounts (≈) assume the structure as drawn.

Experiments:
[1] = anatomic pathology (histopathology of heart and kidney) in mice; format: in vivo; conditions: CD-1 mice, 20 mg/kg intravenously daily for 9 days, necropsy day 10, microscopic histopathology
Description: Samples of tissues from necropsied mice were formalin-fixed, paraffin-embedded, sectioned, stained with hematoxylin and eosin, and examined microscopically. Histopathologic findings were recorded. These findings were subjectively graded on a scale corresponding to slight, mild, moderate, marked and severe as compared to untreated controls.

Escherichia coli = assay: in vitro antibacterial evaluation, MIC by broth dilution; format: cell-based; conditions: 18 hours at 35° C.
How it was run: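 Broth dilution in Muller-Hinton II medium per NCCLS standard M7-A2, with an inoculum of 5×10^5 CFU/mL and antibiotic tested over 64-0.06 μg/mL. MIC was taken as the lowest concentration inhibiting visible growth.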

Staphylococcus sp. = assay: as above; format: cell-based; conditions: broth dilution, 18 hours at 35° C.; for MIC Staphylococcus aureus (ATCC 29213): strain ATCC 29213; for MIC Staphylococcus aureus (GC 1131): strain GC 1131; for MIC Staphylococcus aureus (GC 3051): strain GC 3051; for MIC Staphylococcus aureus (GC 3053): strain GC 3053; for MIC Staphylococcus aureus (GC 4541): strain GC 4541; for MIC Staphylococcus aureus (GC 4542): strain GC 4542; for MIC Staphylococcus aureus-SMITH (GC 4543): strain GC 4543; for MIC Staphylococcus aureus (GC 4544): strain GC 4544; for MIC Staphylococcus aureus (GC 4545): strain GC 4545; for MIC Staphylococcus haemolyticus (GC 4546): strain GC 4546; for MIC Coagulase Negative Staphylococcus (GC 4547): strain GC 4547; for MIC Coagulase Negative Staphylococcus (GC 4548): strain GC 4548; for MIC Coagulase Negative Staphylococcus (GC 4549): strain GC 4549; for MIC Coagulase Negative Staphylococcus (GC 4551): strain GC 4551; for MIC Coagulase Negative Staphylococcus (GC 6257): strain GC 6257
How it was run: (§1)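 Broth dilution per NCCLS standard M7-A2 in Muller-Hinton II […], with an inoculum of 5×10^5 CFU/mL and antibiotic spanning 64-0.06 μg/mL. The MIC is the lowest concentration that inhibits growth of the organism.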

Enterococcus sp. = assay: as above; format: cell-based; conditions: broth dilution, 18 hours at 35° C.
How it was run: as §1

Streptococcus sp. = assay: as above; format: cell-based; conditions: broth dilution, 18 hours at 35° C.
How it was run: as §1

[2] = Enterococcus faecalis (GC 4553)

CN=C1N(C)CC(CC2NC(=O)C(Cc3ccc(OC4OC(CO)C(OC5OC(CO)C(O)C(O)C5O)C(O)C4O)cc3)NC(=O)C(C(C)c3ccccc3)NC(=O)CNC(=O)C(CO)NC(=O)C(CC3CN(C)C(=NC)N3C3OC(CO)C(O)C(O)C3O)NC2=O)N1C (stereo not drawn) [Example 74, Cyclo[3-[1,3-dimethyl-2-(methylimino)imidazolidin-4-yl]alanyl-3-[3-hexopyranosyl-1-methyl-2-(methylimino)imidazolidin-4-yl]alanylserylglycyl-β-methylphenylalanyl-O-(4-O-hexopyranosylhexopyranosyl)tyrosyl]]
Anatomical Pathology (Day 10), Heart [1]: 0 | Anatomical Pathology (Day 10), Kidney [1]: 0 | MIC Escherichia coli (ATCC 25922) (Escherichia coli): >128 µg/mL | MIC Escherichia coli (GC 4559) (Escherichia coli): >128 µg/mL | MIC Escherichia coli (GC 4560) (Escherichia coli): >128 µg/mL | MIC Staphylococcus aureus (ATCC 29213) (Staphylococcus sp.): >128 µg/mL | MIC Staphylococcus aureus (GC 1131) (Staphylococcus sp.): >128 µg/mL | MIC Staphylococcus aureus (GC 3051) (Staphylococcus sp.): >128 µg/mL | MIC Staphylococcus aureus (GC 3053) (Staphylococcus sp.): >128 µg/mL | MIC Staphylococcus aureus (GC 4541) (Staphylococcus sp.): >128 µg/mL | MIC Staphylococcus aureus (GC 4542) (Staphylococcus sp.): >128 µg/mL | MIC Staphylococcus aureus-SMITH (GC 4543) (Staphylococcus sp.): >128 µg/mL | MIC Staphylococcus aureus (GC 4544) (Staphylococcus sp.): >128 µg/mL | MIC Staphylococcus aureus (GC 4545) (Staphylococcus sp.): >128 µg/mL | MIC Staphylococcus haemolyticus (GC 4546) (Staphylococcus sp.): >128 µg/mL | MIC Coagulase Negative Staphylococcus (GC 4547) (Staphylococcus sp.): >128 µg/mL | MIC Coagulase Negative Staphylococcus (GC 4548) (Staphylococcus sp.): >128 µg/mL | MIC Coagulase Negative Staphylococcus (GC 4549) (Staphylococcus sp.): >128 µg/mL | MIC Coagulase Negative Staphylococcus (GC 4551) (Staphylococcus sp.): >128 µg/mL | MIC Coagulase Negative Staphylococcus (GC 6257) (Staphylococcus sp.): >128 µg/mL | MIC Enterococcus avium (GC 4558) (Enterococcus sp.; Enterococcus avium (GC 4558)): 128 µg/mL (≈ 96 µM) | MIC Enterococcus faecalis (ATCC 29212) (Enterococcus sp.; Enterococcus faecalis (ATCC 29212)): >128 µg/mL | MIC Enterococcus faecalis (GC 4552) (Enterococcus sp.; Enterococcus faecalis (GC 4552)): >128 µg/mL | MIC Enterococcus faecalis (GC 4553) (Enterococcus sp.; [2]): >128 µg/mL | MIC Enterococcus faecalis (GC 4554) (Enterococcus sp.; Enterococcus faecalis (GC 4554)): >128 µg/mL | MIC Enterococcus faecalis (GC 6189) (Enterococcus sp.; Enterococcus faecalis (GC 6189)): >128 µg/mL | MIC Enterococcus faecium (GC 2243) (Enterococcus sp.; Enterococcus faecium (GC 2243)): >128 µg/mL | MIC Enterococcus faecium (GC 4556) (Enterococcus sp.; Enterococcus faecium (GC 4556)): >128 µg/mL | MIC Enterococcus faecium (GC 4557) (Enterococcus sp.; Enterococcus faecium (GC 4557)): 128 µg/mL (≈ 96 µM) | MIC Enterococcus avium (GC 4558) (Enterococcus sp.): 128 µg/mL (≈ 96 µM) | MIC Enterococcus faecalis (ATCC 29212) (Enterococcus sp.): >128 µg/mL | MIC Enterococcus faecalis (GC 2242) (Enterococcus sp.): >128 µg/mL | MIC Enterococcus faecalis (GC 2691) (Enterococcus sp.): >128 µg/mL | MIC Enterococcus faecalis (GC 3059) (Enterococcus sp.): >128 µg/mL | MIC Enterococcus faecalis (GC 4552) (Enterococcus sp.): >128 µg/mL | MIC Enterococcus faecalis (GC 4553) (Enterococcus sp.): >128 µg/mL | MIC Enterococcus faecalis (GC 4554) (Enterococcus sp.): >128 µg/mL | MIC Enterococcus faecalis (GC 6189) (Enterococcus sp.): >128 µg/mL | MIC Enterococcus faecium (GC 2243) (Enterococcus sp.): >128 µg/mL | MIC Enterococcus faecium (GC 4556) (Enterococcus sp.): >128 µg/mL | MIC Enterococcus faecium (GC 4557) (Enterococcus sp.): 128 µg/mL (≈ 96 µM) | MIC Enterococcus faecalis (GC 2242) (Enterococcus sp.; strain GC 2242): >128 µg/mL | MIC Enterococcus faecalis (GC 2691) (Enterococcus sp.; strain GC 2691): >128 µg/mL | MIC Enterococcus faecalis (GC 3059) (Enterococcus sp.; strain GC 3059): >128 µg/mL | MIC Streptococcus agalactiae (GC 4564) (Streptococcus sp.): 128 µg/mL (≈ 96 µM) | MIC Streptococcus pneumoniae (ATCC 6301) (Streptococcus sp.): >128 µg/mL | MIC Streptococcus pneumoniae (GC 1894) (Streptococcus sp.): 128 µg/mL (≈ 96 µM) | MIC Streptococcus pneumoniae (GC 4565) (Streptococcus sp.): >128 µg/mL | MIC Streptococcus pyogenes (GC 4563) (Streptococcus sp.): >128 µg/mL | MIC Streptococcus pneumoniae (ATCC 6301) (Streptococcus sp.; strain ATCC 6301): >128 µg/mL | MIC Streptococcus pneumoniae (GC 1894) (Streptococcus sp.; strain GC 1894): 128 µg/mL (≈ 96 µM) | MIC Streptococcus pyogenes (GC 4563) (Streptococcus sp.; strain GC 4563): >128 µg/mL | MIC Streptococcus agalactiae (GC 4564) (Streptococcus sp.; strain GC 4564): 128 µg/mL (≈ 96 µM) | MIC Streptococcus pneumoniae (GC 4565) (Streptococcus sp.; strain GC 4565): >128 µg/mL

CC(c1ccccc1)C1NC(=O)CNC(=O)C(CO)NC(=O)C(C(O)C2CNC(=NCc3ccccc3)N2C2OC(CO)C(O)C(O)C2O)NC(=O)C(C(O)C2CNC(=N)N2)NC(=O)C(Cc2ccc(OC3OC(CO)C(OC4OC5COC6(OC5C(O)C4O)C4CC5CC(C4)CC6C5)C(O)C3O)cc2)NC1=O (stereo not drawn) [Example 76, Cyclo[glycyl-β-methylphenylalanyl-O-[4-O-[4,6-O-(2-adamantylidene)hexopyranosyl]hexopyranosyl]tyrosyl-3-(2-iminoimidazolidin-4-yl)seryl-3-[2-(benzylimino)-3-hexopyranosylimidazolidin-4-yl]serylseryl]]
Anatomical Pathology (Day 10), Heart [1]: 0 | Anatomical Pathology (Day 10), Kidney [1]: ++ | MIC Escherichia coli (GC 4560) (Escherichia coli): 2 to 4 µg/mL | MIC Staphylococcus aureus (ATCC 29213) (Staphylococcus sp.): 2 to 8 µg/mL | MIC Staphylococcus aureus (GC 1131) (Staphylococcus sp.): 4 to 8 µg/mL | MIC Staphylococcus aureus (GC 3051) (Staphylococcus sp.): 2 to 8 µg/mL | MIC Staphylococcus aureus (GC 3053) (Staphylococcus sp.): 2 to 8 µg/mL | MIC Staphylococcus aureus (GC 4541) (Staphylococcus sp.): 2 to 4 µg/mL | MIC Staphylococcus aureus (GC 4542) (Staphylococcus sp.): 2 to 8 µg/mL | MIC Staphylococcus aureus-SMITH (GC 4543) (Staphylococcus sp.): 1 to 4 µg/mL | MIC Staphylococcus aureus (GC 4544) (Staphylococcus sp.): 4 to 8 µg/mL | MIC Staphylococcus aureus (GC 4545) (Staphylococcus sp.): 2 to 8 µg/mL | MIC Staphylococcus haemolyticus (GC 4546) (Staphylococcus sp.): 2 to 4 µg/mL | MIC Coagulase Negative Staphylococcus (GC 4547) (Staphylococcus sp.): 2 to 4 µg/mL | MIC Coagulase Negative Staphylococcus (GC 4548) (Staphylococcus sp.): 2 to 4 µg/mL | MIC Coagulase Negative Staphylococcus (GC 4549) (Staphylococcus sp.): 2 to 4 µg/mL | MIC Coagulase Negative Staphylococcus (GC 4551) (Staphylococcus sp.): 2 to 8 µg/mL | MIC Coagulase Negative Staphylococcus (GC 6257) (Staphylococcus sp.): 0.5 to 2 µg/mL | MIC Enterococcus avium (GC 4558) (Enterococcus sp.; Enterococcus avium (GC 4558)): 2 to 8 µg/mL | MIC Enterococcus faecalis (GC 4553) (Enterococcus sp.; [2]): 4 to 8 µg/mL | MIC Enterococcus faecium (GC 2243) (Enterococcus sp.; Enterococcus faecium (GC 2243)): 2 to 8 µg/mL | MIC Enterococcus faecium (GC 4557) (Enterococcus sp.; Enterococcus faecium (GC 4557)): 1 to 2 µg/mL | MIC Enterococcus avium (GC 4558) (Enterococcus sp.): 2 to 8 µg/mL | MIC Enterococcus faecalis (ATCC 29212) (Enterococcus sp.): 4 to 16 µg/mL | MIC Enterococcus faecalis (GC 2242) (Enterococcus sp.): 4 to 16 µg/mL | MIC Enterococcus faecalis (GC 2691) (Enterococcus sp.): 4 to 16 µg/mL | MIC Enterococcus faecalis (GC 3059) (Enterococcus sp.): 4 to 32 µg/mL | MIC Enterococcus faecalis (GC 4552) (Enterococcus sp.): 4 to 16 µg/mL | MIC Enterococcus faecalis (GC 4553) (Enterococcus sp.): 4 to 8 µg/mL | MIC Enterococcus faecalis (GC 4554) (Enterococcus sp.): 4 to 32 µg/mL | MIC Enterococcus faecalis (GC 6189) (Enterococcus sp.): 4 to 16 µg/mL | MIC Enterococcus faecium (GC 2243) (Enterococcus sp.): 2 to 8 µg/mL | MIC Enterococcus faecium (GC 4556) (Enterococcus sp.): 4 to 16 µg/mL | MIC Enterococcus faecium (GC 4557) (Enterococcus sp.): 1 to 2 µg/mL | MIC Streptococcus agalactiae (GC 4564) (Streptococcus sp.): 0.25 to 2 µg/mL | MIC Streptococcus pneumoniae (ATCC 6301) (Streptococcus sp.): <0.12 to 1 µg/mL | MIC Streptococcus pneumoniae (GC 1894) (Streptococcus sp.): <0.06 to 0.25 µg/mL | MIC Streptococcus pneumoniae (GC 4565) (Streptococcus sp.): 0.25 to 4 µg/mL | MIC Streptococcus pyogenes (GC 4563) (Streptococcus sp.): 0.25 to 2 µg/mL
